The subject of this assay is HEK293T cells carrying the ATF4 luciferase reporter. Kind of assay: ATF4-Luc assay (in vitro model of vanishing white matter disease). The assay is classed as cell-based, human. To be noted: Homo sapiens, HEK-293T; HEK293T cells with ATF4 5'-UTR firefly luciferase reporter; 1 μg/mL tunicamycin; 7 hours; One Glo luminescence. Here is the method:
In order to test exemplary compounds of the invention in a cellular context, a stable VWMD cell line was first constructed. The ATF4 reporter was prepared by fusing the human full-length ATF4 5′-UTR (NCBI Accession No. BC022088.2) in front of the firefly luciferase (FLuc) coding sequence lacking the initiator methionine as described in Sidrauski et al (eLife 2013). The construct was used to produce recombinant retroviruses using standard methods and the resulting viral supernatant was used to transduce HEK293T cells, which were then subsequently selected with puromycin to generate a stable cell line.
HEK293T cells carrying the ATF4 luciferase reporter were plated on polylysine coated 384-well plates (Greiner Bio-one) at 30,000 cells per well. Cells were treated the next day with 1 μg/mL tunicamycin and 200 nM of a compound of Formula (I) for 7 hours. Luminescence was measured using One Glo (Promega) as specified by the manufacturer. Cells were maintained in DMEM with L-glutamine supplemented with 10% heat-inactivated FBS (Gibco) and Antibiotic-Antimycotic solution (Gibco).
Table 2 below summarizes the EC50 data obtained using the ATF4-Luc assay for exemplary compounds of the invention.

pEC50: −log10 of the molar value.

For `O=C(COc1ccc(Cl)c(F)c1)N[C@H]1CC[C@H](N2CCN(c3cnc(C(F)F)cn3)C2=O)CC1` [Compound 121, 2-(4-chloro-3-fluorophenoxy)-N-[(1r,4r)-4-{3-[5-(difluoromethyl)pyrazin-2-yl]-2-oxoimidazolidin-1-yl}cyclohexyl]acetamide], the negative-log EC50 (pEC50) is greater than 7.30.

For the molecule `O=C(N[C@H]1CC[C@H](N2CCN(c3cnc(C(F)F)cn3)C2=O)CC1)OCc1ccccc1` [Compound 122, benzyl [(1r,4r)-4-{3-[5-(difluoromethyl)pyrazin-2-yl]-2-oxoimidazolidin-1-yl}cyclohexyl]carbamate], the negative logarithm of the EC50 (pEC50) was less than 5.70.

As for `O=C(N[C@H]1CC[C@H](N2CCN(c3ccc(C(F)F)cn3)C2=O)CC1)c1ccc(Cl)c(F)c1` [Compound 123, 4-chloro-N-[(1r,4r)-4-{3-[5-(difluoromethyl)pyridin-2-yl]-2-oxoimidazolidin-1-yl}cyclohexyl]-3-fluorobenzamide], the pEC50 is less than 5.70.

Consider `O=C(N[C@H]1CC[C@H](N2CCN(c3ccc(C(F)F)cn3)C2=O)CC1)c1ccc(OC(F)(F)F)cn1` [Compound 124, N-[(1r,4r)-4-{3-[5-(difluoromethyl)pyridin-2-yl]-2-oxoimidazolidin-1-yl}cyclohexyl]-5-(trifluoromethoxy)pyridine-2-carboxamide], for which the pEC50 is less than 5.70.

With `O=C(COc1ccc(C(F)(F)F)nc1)N[C@H]1CC[C@H](N2CCN(c3ccc(C(F)F)cn3)C2=O)CC1` [Compound 125, N-[(1r,4r)-4-{3-[5-(difluoromethyl)pyridin-2-yl]-2-oxoimidazolidin-1-yl}cyclohexyl]-2-{[6-(trifluoromethyl)pyridin-3-yl]oxy}acetamide], the negative logarithm of the EC50 (pEC50) is 6.60 to 7.30.

Consider `O=C(COc1ccc(F)c(F)c1)N[C@H]1CC[C@H](N2CCN(c3ccc(C(F)F)cn3)C2=O)CC1` [Compound 126, N-[(1r,4r)-4-{3-[5-(difluoromethyl)pyridin-2-yl]-2-oxoimidazolidin-1-yl}cyclohexyl]-2-(3,4-difluorophenoxy)acetamide], for which the pEC50 was greater than 7.30.

As for `O=C(COc1ccc(OC(F)(F)F)cc1)N[C@H]1CC[C@H](N2CCN(c3ccc(C(F)F)cn3)C2=O)CC1` [Compound 127, N-[(1r,4r)-4-{3-[5-(difluoromethyl)pyridin-2-yl]-2-oxoimidazolidin-1-yl}cyclohexyl]-2-[4-(trifluoromethoxy)phenoxy]acetamide], the pEC50 was 6.00 to 6.60.

For `O=C(COc1ccc2c(c1)OC(F)(F)O2)N[C@H]1CC[C@H](N2CCN(c3ccc(C(F)F)cn3)C2=O)CC1` [Compound 128, 2-[(2,2-difluoro-2H-1,3-benzodioxol-5-yl)oxy]-N-[(1r,4r)-4-{3-[5-(difluoromethyl)pyridin-2-yl]-2-oxoimidazolidin-1-yl}cyclohexyl]acetamide], the pEC50 is 6.60 to 7.30.

As for `O=C(N[C@H]1CC[C@H](N2CCN(c3ccc(C(F)F)cn3)C2=O)CC1)OCc1ccccc1` [Compound 129, benzyl [(1r,4r)-4-{3-[5-(difluoromethyl)pyridin-2-yl]-2-oxoimidazolidin-1-yl}cyclohexyl]carbamate], the pEC50 was less than 5.70.

Take `O=C(COc1ccc(Cl)c(F)c1)N[C@H]1CC[C@H](N2CCN(c3ccccn3)C2=O)CC1` [Compound 130, 2-(4-chloro-3-fluorophenoxy)-N-{(1r,4r)-4-[2-oxo-3-(pyridin-2-yl)imidazolidin-1-yl]cyclohexyl}acetamide]: the pEC50 is greater than 7.30.

In the case of `Cc1csc(N2CCN([C@H]3CC[C@H](NC(=O)COc4ccc(Cl)c(F)c4)CC3)C2=O)n1` [Compound 131, 2-(4-chloro-3-fluorophenoxy)-N-{(1r,4r)-4-[3-(4-methyl-1,3-thiazol-2-yl)-2-oxoimidazolidin-1-yl]cyclohexyl}acetamide], the pEC50 is 6.00 to 6.60.

As to `O=C(COc1ccc(Cl)c(F)c1)N[C@H]1CC[C@H](N2CCN(c3ccc(C(F)F)cn3)C2=O)CC1` [Compound 133, 2-(4-chloro-3-fluorophenoxy)-N-[(1r,4r)-4-{3-[5-(difluoromethyl)pyridin-2-yl]-2-oxoimidazolidin-1-yl}cyclohexyl]acetamide], the pEC50 is greater than 7.30.

`O=C(COc1ccc(Cl)c(F)c1)N[C@H]1CC[C@H](N2CCN(c3ccc4c(c3)OC(F)(F)O4)C2=O)CC1` [Compound 134, 2-(4-chloro-3-fluorophenoxy)-N-{(1r,4r)-4-[3-(2,2-difluoro-2H-1,3-benzodioxol-5-yl)-2-oxoimidazolidin-1-yl]cyclohexyl}acetamide]: the pEC50 was greater than 7.30.

As for `O=C(COc1ccc(Cl)c(F)c1)N[C@H]1CC[C@H](N2CCN(c3ccc(Cl)cn3)C2=O)CC1` [Compound 135, 2-(4-chloro-3-fluorophenoxy)-N-{(1r,4r)-4-[3-(5-chloropyridin-2-yl)-2-oxoimidazolidin-1-yl]cyclohexyl}acetamide], the pEC50 is greater than 7.30.

For `O=C(COc1ccc(Cl)c(F)c1)N[C@H]1CC[C@H](N2CCN(c3ccc(OC(F)(F)F)nc3)C2=O)CC1` [Compound 136, 2-(4-chloro-3-fluorophenoxy)-N-[(1r,4r)-4-{2-oxo-3-[6-(trifluoromethoxy)pyridin-3-yl]imidazolidin-1-yl}cyclohexyl]acetamide], the negative-log EC50 (pEC50) is less than 5.70.

In the case of `O=C(COc1ccc(Cl)c(F)c1)NC12CC(N3CNc4cc(F)c(F)cc4C3=O)(C1)C2` [Compound 137, 2-(4-chloro-3-fluorophenoxy)-N-[3-(6,7-difluoro-4-oxo-1,4-dihydroquinazolin-3(2H)-yl)bicyclo[1.1.1]pentan-1-yl]acetamide], the negative logarithm of the EC50 (pEC50) was 6.00 to 6.60.

In the case of `O=C(COc1ccc(Cl)c(F)c1)NC12CC(n3c(=O)c4ccc(Cl)cc4n(CCO)c3=O)(C1)C2` [Compound 138, 2-(4-chloro-3-fluorophenoxy)-N-{3-[7-chloro-1-(2-hydroxyethyl)-2,4-dioxo-1,4-dihydroquinazolin-3(2H)-yl]bicyclo[1.1.1]pentan-1-yl}acetamide], the pEC50 is 6.60 to 7.30.

With `O=c1[nH]c2cc(Cl)ccc2c(=O)n1C12CC(NCCOc3ccc(Cl)c(F)c3)(C1)C2` [Compound 139, 7-chloro-3-(3-{[2-(4-chloro-3-fluorophenoxy)ethyl]amino}bicyclo[1.1.1]pentan-1-yl)quinazoline-2,4(1H,3H)-dione], the pEC50 was less than 5.70.

On to `O=C(COc1ccc(Cl)c(F)c1)NC12CC(n3c(=O)[nH]c4cc(Cl)ccc4c3=O)(C1)C2` [Compound 140, N-[3-(7-chloro-2,4-dioxo-1,4-dihydroquinazolin-3(2H)-yl)bicyclo[1.1.1]pentan-1-yl]-2-(4-chloro-3-fluorophenoxy)acetamide], for which the pEC50 was 6.00 to 6.60.

`O=C(COc1ccc(Cl)c(F)c1)N[C@H]1CC[C@H](N2CCN(c3ccc(OC(F)(F)F)cn3)C2=O)CC1` [Compound 141, 2-(4-chloro-3-fluorophenoxy)-N-[(1r,4r)-4-{2-oxo-3-[5-(trifluoromethoxy)pyridin-2-yl]imidazolidin-1-yl}cyclohexyl]acetamide]: the negative logarithm of the EC50 (pEC50) is 6.60 to 7.30.

With `O=C(COc1ccc(Cl)c(F)c1)N[C@H]1CC[C@H](N2CCN(c3ccc(C(F)F)nc3)C2=O)CC1` [Compound 142, 2-(4-chloro-3-fluorophenoxy)-N-[(1r,4r)-4-{3-[6-(difluoromethyl)pyridin-3-yl]-2-oxoimidazolidin-1-yl}cyclohexyl]acetamide], the pEC50 is greater than 7.30.

In the case of `O=C(COc1ccc(Cl)c(F)c1)N[C@H]1CC[C@H](N2CCN(c3ccc(C(F)(F)F)nc3)C2=O)CC1` [Compound 143, 2-(4-chloro-3-fluorophenoxy)-N-[(1r,4r)-4-{2-oxo-3-[6-(trifluoromethyl)pyridin-3-yl]imidazolidin-1-yl}cyclohexyl]acetamide], the pEC50 was greater than 7.30.

Take `O=C(COc1ccc(Cl)c(F)c1)N[C@H]1CC[C@H](N2CCN(c3ccc(Cl)cc3)C2=O)CC1` [Compound 144, 2-(4-chloro-3-fluorophenoxy)-N-{(1r,4r)-4-[3-(4-chlorophenyl)-2-oxoimidazolidin-1-yl]cyclohexyl}acetamide]: the negative logarithm of the EC50 (pEC50) was greater than 7.30.

Consider `O=C(COc1ccc(Cl)c(F)c1)NC12CC(N3CCN(c4ccc(Cl)cn4)C3=O)(C1)C2` [Compound 145, 2-(4-chloro-3-fluorophenoxy)-N-{3-[3-(5-chloropyridin-2-yl)-2-oxoimidazolidin-1-yl]bicyclo[1.1.1]pentan-1-yl}acetamide], for which the pEC50 was greater than 7.30.

In the case of `O=C(COc1ccc(Cl)c(F)c1)NC12CCC(N3CCN(c4ccc(Cl)c(F)c4)C3=O)(CC1)CC2O` (stereo not drawn) [Compound 146, 2-(4-chloro-3-fluorophenoxy)-N-{4-[3-(4-chloro-3-fluorophenyl)-2-oxoimidazolidin-1-yl]-2-hydroxybicyclo[2.2.2]octan-1-yl}acetamide], the negative logarithm of the EC50 (pEC50) is greater than 7.30.

Take `O=C(COc1ccc(Cl)c(F)c1)NC12CC(N3CCN(c4ccc(C(F)F)cn4)C3=O)(C1)C2` [Compound 147, 2-(4-chloro-3-fluorophenoxy)-N-(3-{3-[5-(difluoromethyl)pyridin-2-yl]-2-oxoimidazolidin-1-yl}bicyclo[1.1.1]pentan-1-yl)acetamide]: the pEC50 was greater than 7.30.

Turning to `O=C(COc1ccc(Cl)c(F)c1)NC12CC(N3C(=O)OC(c4ccc(F)cc4)C3=O)(C1)C2` (stereo not drawn) [Compound 158, 2-(4-chloro-3-fluorophenoxy)-N-{3-[5-(4-fluorophenyl)-2,4-dioxo-,3-oxazolidin-3-yl]bicyclo[1.1.1]pentan-1-yl}acetamide], the negative-log EC50 (pEC50) is 5.70 to 6.00.

The values are drawn from patent US20200347033A1, “MODULATORS OF THE INTEGRATED STRESS PATHWAY” (Calico Life Sciences LLC, priority 2017, published 2020).
